One experiment has as its system intracellular Ca^2+. Nature of the experiment: Secretin-induced catecholamine secretion with intracellular Ca2+ chelator. Particulars: BAPTA-AM 50 μM pre-treatment 30 min; secretin 8 μM, 20 min, Ca2+-free buffer + 0.5 mM EGTA. The experiment is classed as cell-based, rat.
The next experiment has as its system PLC-β. Nature of the experiment: Inhibition of secretin-evoked catecholamine secretion by PLC-β blockade. The experiment is classed as cell-based, rat. As to conditions: secretin 8 μM, 20 min.
In another experiment the test system is phospholipase C. As to conditions: U-73122 20 μM, secretin 8 μM, 0.5 min.
Experiment [1] concerns plasma membrane Ca^2+ channels. The experiment is classed as cell-based, rat.
Experiment [2] concerns plasma membrane Ca^2+ channels. The experiment is classed as cell-based, rat. As to conditions: ZnCl2 100 μM; data not shown.
A further experiment relates to catecholamine secretion. As to conditions: cited from earlier work.
A further experiment relates to cAMP in PC12 cells. Particulars: cited from earlier work.
The test system of the next experiment is Th gene. Particulars: cited from earlier work; for transcription of Th (PACAP and VIP, literature): porcine/bovine chromaffin cells, PC12 cells, CATH.a cells, ref Isobe et al. 1996, Park et al. 1999, Tonshoff et al. 1997, Corbitt et al. 1998, 2002, Yukimasa et al. 1999, Muller et al. 1997.
A further experiment addresses T1, VPAC1 (Rattus norvegicus, UniProt P30083).
T1 sequence (P30083 31-459): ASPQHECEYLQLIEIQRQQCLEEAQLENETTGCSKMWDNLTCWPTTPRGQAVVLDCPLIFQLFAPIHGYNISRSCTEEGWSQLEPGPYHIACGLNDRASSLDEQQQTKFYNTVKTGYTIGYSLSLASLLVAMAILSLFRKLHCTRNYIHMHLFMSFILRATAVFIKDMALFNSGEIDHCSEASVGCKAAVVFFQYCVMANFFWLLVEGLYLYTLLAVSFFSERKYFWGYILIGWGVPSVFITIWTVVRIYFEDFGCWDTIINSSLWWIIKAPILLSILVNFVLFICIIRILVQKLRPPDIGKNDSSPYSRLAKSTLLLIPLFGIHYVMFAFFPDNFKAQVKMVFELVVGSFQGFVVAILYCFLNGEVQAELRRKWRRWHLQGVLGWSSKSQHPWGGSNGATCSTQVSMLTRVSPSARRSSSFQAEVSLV
The experiment in a line: Blockade of secretin-induced Th transcription by VPAC1 antagonist. As to conditions: pre-treatment before secretin 0.1 μM (Fig. 1d).

The next experiment relates to PAC1 receptor. Nature of the experiment: PAC1 receptor agonism inferred from secretion concentrations. The experiment is classed as cell-based. As to conditions: inferred from secretion findings.
The next experiment deals with SCTR. The experiment in a line: Inhibition of secretin-induced catecholamine secretion by SCTR antagonist. In kind it is cell-based, rat. As to conditions: antagonist up to 20 μM, secretin 6 μM, 30 min.

Ends that are not written are not given here.

The text below walks through data of PMC10843894 (Cell and tissue research, 2011).

On to `CC(=O)OCOC(=O)CN(CC(=O)OCOC(C)=O)c1ccccc1OCCOc1ccccc1N(CC(=O)OCOC(C)=O)CC(=O)OCOC(C)=O` [BAPTA-AM], for which the “effect of BAPTA-AM on secretin-induced catecholamine secretion” value with intracellular Ca^2+ was “completely abolished”.
Consider `COc1ccc2c(c1)CC[C@@H]1[C@@H]2CC[C@]2(C)[C@@H](NCCCCCCN3C(=O)C=CC3=O)CC[C@@H]12` [U73122], for which the “inhibition of secretin-evoked catecholamine secretion by PLC-β inhibitor” value in the experiment on PLC-β (U-73122 10 μM) is listed as ~ 54%. In addition, the “inhibition of IP3 levels by PLC blockade” value in the experiment on phospholipase C is recorded as ~ 61%.
Consider `COc1ccc2c(c1)CC[C@@H]1[C@@H]2CC[C@]2(C)[C@@H](NCCCCCCN3C(=O)CCC3=O)CC[C@@H]12` [U-73343], for which the “effect of inactive isomer on secretin-induced secretion” value with PLC-β (U-73343 10 μM) is recorded as “did not affect secretin-induced secretion”.
As for `[Cl-].[Cl-].[Zn+2]` [ZnCl2], the “effect of non-specific Ca2+ channel blockade on secretin-induced secretion” value in [1] (ZnCl2 100 μM, secretin 8 μM, 20 min) is “ineffective”. For the same compound, the “block of PACAP-induced catecholamine secretion” value in experiment [2] is listed as “completely blocked”.
For `CN1CCC[C@H]1c1cccnc1` [nicotine], the “prolonged catecholamine secretion, nicotine (literature)” value in the experiment on catecholamine secretion (ref Hamelink et al. 2002) is given as “does not cause prolonged catecholamine secretion”.
With “Pituitary adenylyl cyclase activating polypeptide [PACAP]”, the “intracellular cAMP levels in chromaffin cells (literature), PACAP” value with cAMP in PC12 cells (ref Hamelink et al. 2002) is listed as “elevated”. In the experiment with Th gene, the “transcription of Th (PACAP and VIP, literature)” value is “augment the transcription of Th”. The “concentration achieving significant catecholamine secretion (PACAP)” value with catecholamine secretion (ref Chowdhury et al. 1994, Przywara et al. 1996) was 10 nM. Also, the “prolonged catecholamine secretion, PACAP (literature)” value in the experiment with catecholamine secretion (ref Taupenot et al. 1999) was “long-lasting”.
For the compound “VIP6–28: VPAC1 (VIP6–28) antagonist (FTDNYTRLRKQMAVKKYLNSILN; ends and bridges not checked; UniProt P01282 130-152, looked up, fragment)”, in the experiment on Th gene (ref Wessels-Reiker et al. 1993), the “effect of VPAC1 antagonist on Th gene expression induced by secretin or PHI” value is “no significant effect” and the “effect of VPAC1 antagonist on VIP-increased Th mRNA” value is given as “lowers the effect of VIP on increasing Th mRNA”. In addition, in the experiment with VPAC1, the “effect on secretin-induced transcription of Th gene, VPAC1 antagonist” value was “Failure”.
As for Vasoactive intestinal polypeptide [VIP], the “agonism at PAC1 receptor” value in the experiment with PAC1 receptor is “poor agonists for the PAC1 receptor”. Also, the “intracellular cAMP levels in chromaffin cells (literature), VIP” value in the experiment with cAMP in PC12 cells (ref Anderova et al. 1998) was “elevated”. Further, the “transcription of Th (PACAP and VIP, literature)” value in the experiment on Th gene was “augment the transcription of Th”. Moreover, the “concentration achieving significant catecholamine secretion (VIP)” value in the experiment with catecholamine secretion (ref Guo and Wakade 1994, Wakade et al. 1991) was 300 nM. The “source of Ca2+ for VIP-induced catecholamine secretion” value with catecholamine secretion (ref Malhotra et al. 1988) is “depends solely upon Ca^2+ mobilization from intracellular stores”.
For the compound “secretin5–27: SCTR antagonist (secretin5–27) (TFTSELSRLREGARLQRLLQGLV; ends and bridges not checked; UniProt P09683 32-54, looked up, fragment)”, the “effect of SCTR antagonist on secretin-induced secretion” value in the experiment on SCTR is “failed to inhibit secretion”. In the experiment on Th gene (ref Wessels-Reiker et al. 1993), the “effect of SCTR antagonist on VIP- or PHI-induced Th gene expression” value is recorded as “no significant effect” and the “effect of SCTR antagonist on secretin-induced Th gene expression (literature)” value is given as “reduces the effect of secretin”.
Turning to ω-agatoxin, in experiment [1], the “effect of Ca2+ channel inhibitors on secretin-induced catecholamine secretion” value (“effect of Ca2+ channel inhibitors” below) is recorded as “little to no effect”.
Consider ω-conotoxin GVIA, for which, in experiment [1], the “effect of Ca2+ channel inhibitors” value is given as “little to no effect”.
As for ω-conotoxin MVIIC, in experiment [1], the “effect of Ca2+ channel inhibitors” value is “little to no effect”.
